Tests used:
Type in all cases: in vivo
[1] = system: Echinochloa oryzacola Vasing.; test: Test Example 1: herbicidal activity, application before weed generation in submerged conditions (symbol A); settings: application herbicide amount 320 g/ha
Procedure, shortened: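 Weed control was rated three weeks after treatment on a 0–5 scale, from 5% or lower up to 90% or more. Pre-emergence water-surface application of diluted emulsion at a predetermined rate was made on the day of sowing, in flooded (4 cm water) pots containing rice seedlings, kept at 25–30 °C under glass.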

[2] = system: transplanted rice plant; test: Test Example 1: effect on crop, application before weed generation in submerged conditions (symbol a); settings: application herbicide amount 320 g/ha
Procedure, shortened: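 Rice at 2.5 leaf stage transplanted into submerged soil (4 cm depth) sown with three weed species; herbicide applied before weed emergence.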

[3] = system: Scirpus juncoides; test: Test Example 2: herbicidal activity, application during weed generation in submerged conditions (symbol B); settings: Table 23; application herbicide amount 320 g/ha; grade 0-5 by criteria of Test Example 1
Procedure, shortened: (§1)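 Alluvial soil in pots was flooded to a 4 cm water depth and sown with a mix of the three weed species, then grown in a greenhouse at 25° C. to 30° C. At the one- to two-leaf stage, an emulsifiable formulation diluted in water to a set dose was applied to the water surface. Effects were scored visually 3 weeks later.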

[4] = system: Monochoria vaginalis; test: Test Example 2: herbicidal activity, application during weed generation in submerged conditions (symbol C); settings: Table 23; application herbicide amount 320 g/ha; grade 0-5 by criteria of Test Example 1
Procedure, shortened: as §1

[5] = system: Cyperus difformis; test: Test Example 3: herbicidal effect by foliage application, Wagner pot (symbol E); settings: application herbicide amount 320 g/ha
Procedure, shortened: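 Weeds and rice were sown in alluvial soil under 0.1–0.5 cm of standing water and grown for 14 days in a 25–30 °C greenhouse. An emulsion of the compound, diluted in water to a set dose, was sprayed evenly onto the foliage. Effect was scored against fixed criteria 3 weeks after treatment.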

[6] = system: Echinochloa crus-galli var. crus-galli; test: Test Example 4: herbicidal effect by soil treatment (symbol H); settings: application herbicide amount 320 g/ha
Procedure, shortened: (§2)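 Seeds were sown in sterilized diluvial soil, covered with about 1.5 cm of soil, and the soil surface was sprayed with a water-diluted emulsion of the compound at a predetermined rate. Plants grew in a greenhouse at 25° C. to 30° C.; effects were scored visually 3 weeks after application.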

[7] = system: Abutilon theophrasti; test: Test Example 4: herbicidal effect by soil treatment (symbol M); settings: application herbicide amount 320 g/ha
Procedure, shortened: as §2

[8] = system: Chenopodium album; test: Test Example 4: herbicidal effect by soil treatment (symbol O); settings: application herbicide amount 320 g/ha
Procedure, shortened: as §2

[9] = system: Veronica persica; test: Test Example 4: herbicidal effect by soil treatment (symbol R); settings: application herbicide amount 320 g/ha
Procedure, shortened: as §2

[10] = system: Setaria viridis; test: Test Example 5: herbicidal effect by foliage application, plastic box (symbol G); settings: 320 g/ha, 3 weeks after application
Procedure, shortened: (§3)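 Greenhouse foliar test: seedlings at 14 days, grown 25° C. to 30° C. in sterilized diluvial soil; compound applied as an aqueous dilution of an emulsion; response read 3 weeks after spraying.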

[11] = system: Amaranthus retroflexus; test: Test Example 5: herbicidal effect by foliage application, plastic box (symbol N); settings: 320 g/ha, 3 weeks after application
Procedure, shortened: as §3

[12] = system: corn; test: Test Example 5: effect on crop by foliage application, plastic box (symbol c); settings: 320 g/ha, 3 weeks after application
Procedure, shortened: (§4)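 Seeds were sown in spots in sterilized diluvial soil held in a plastic box 21 cm × 13 cm × 7 cm deep, covered with about 1.5 cm of soil, and grown in a greenhouse at 25° C. to 30° C.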

[13] = system: soybean; test: Test Example 5: effect on crop by foliage application, plastic box (symbol d); settings: 320 g/ha, 3 weeks after application
Procedure, shortened: as §4

## CON=C(C)CC1CC(O)=C(c2c(C)cc(-c3ccc(F)c(Cl)c3)cc2C)C1=O (stereo not drawn) [6-085]
[1]
  Herbicidal effect grade, A: Echinochloa oryzacola Vasing.: 5 (Herbicidal ratio of 90% or more (almost completely withered))
[2]
  Effect grade on crop, a: transplanted rice plant: 5 (Herbicidal ratio of 90% or more (almost completely withered))
[3]
  Herbicidal effect grade, B: Scirpus juncoides: 4 (Herbicidal ratio of 70% or higher and lower than 90%)
[4]
  Herbicidal effect grade, C: Monochoria vaginalis: 1 (Herbicidal ratio of 5% or higher and lower than 20%)
[5]
  herbicidal effect on E, grade 0-5: 5 (Herbicidal ratio of 90% or more (almost completely withered))
[6]
  Herbicidal effect grade, H: Echinochloa crus-galli var. crus-galli: 5 (Herbicidal ratio of 90% or more (almost completely withered))
[7]
  Herbicidal effect grade, M: Abutilon theophrasti: 4 (Herbicidal ratio of 70% or higher and lower than 90%)
[8]
  Herbicidal effect grade, O: Chenopodium album: 5 (Herbicidal ratio of 90% or more (almost completely withered))
[9]
  Herbicidal effect grade, R: Veronica persica: 4 (Herbicidal ratio of 70% or higher and lower than 90%)
[10]
  G: Setaria viridis, herbicidal effect (criteria of Test Example 1): 5 (Herbicidal ratio of 90% or more (almost completely withered))
[11]
  N: Amaranthus retroflexus, herbicidal effect (criteria of Test Example 1): 3 (Herbicidal ratio of 40% or higher and lower than 70%)
[12]
  c: corn, effect on crop (criteria of Test Example 1): 3 (Herbicidal ratio of 40% or higher and lower than 70%)
[13]
  d: soybean, effect on crop (criteria of Test Example 1): 5 (Herbicidal ratio of 90% or more (almost completely withered))

## CON=C(C)CC1CC(O)=C(c2c(C)cc(-n3cccn3)cc2C)C1=O (stereo not drawn) [6-073]
[1]
  Herbicidal effect grade, A: Echinochloa oryzacola Vasing.: 4 (Herbicidal ratio of 70% or higher and lower than 90%)
[2]
  Effect grade on crop, a: transplanted rice plant: 5 (Herbicidal ratio of 90% or more (almost completely withered))
[3]
  Herbicidal effect grade, B: Scirpus juncoides: 2 (Herbicidal ratio of 20% or higher and lower than 40%)
[4]
  Herbicidal effect grade, C: Monochoria vaginalis: 1 (Herbicidal ratio of 5% or higher and lower than 20%)
[5]
  herbicidal effect on E, grade 0-5: 5 (Herbicidal ratio of 90% or more (almost completely withered))
[6]
  H: Echinochloa crus-galli var. crus-galli, herbicidal effect grade: 5 (Herbicidal ratio of 90% or more (almost completely withered))
[7]
  M: Abutilon theophrasti, herbicidal effect grade: 0 (Herbicidal ratio of 5% or lower (almost no effect))
[8]
  O: Chenopodium album, herbicidal effect grade: 0 (Herbicidal ratio of 5% or lower (almost no effect))
[9]
  R: Veronica persica, herbicidal effect grade: 0 (Herbicidal ratio of 5% or lower (almost no effect))
[10]
  G: Setaria viridis, herbicidal effect (criteria of Test Example 1): 5 (Herbicidal ratio of 90% or more (almost completely withered))
[11]
  N: Amaranthus retroflexus, herbicidal effect (criteria of Test Example 1): 0 (Herbicidal ratio of 5% or lower (almost no effect))
[12]
  c: corn, effect on crop (criteria of Test Example 1): 4 (Herbicidal ratio of 70% or higher and lower than 90%)
[13]
  d: soybean, effect on crop (criteria of Test Example 1): 0 (Herbicidal ratio of 5% or lower (almost no effect))

## CC(=O)CC1CC(O)=C(c2c(C)cc(-c3ccccn3)cc2C)C1=O (stereo not drawn) [7-012]
[1]
  Herbicidal effect grade, A: Echinochloa oryzacola Vasing.: 3 (Herbicidal ratio of 40% or higher and lower than 70%)
[2]
  Effect grade on crop, a: transplanted rice plant: 1 (Herbicidal ratio of 5% or higher and lower than 20%)
[3]
  Herbicidal effect grade, B: Scirpus juncoides: 0 (Herbicidal ratio of 5% or lower (almost no effect))
[4]
  Herbicidal effect grade, C: Monochoria vaginalis: 0 (Herbicidal ratio of 5% or lower (almost no effect))
[5]
  herbicidal effect on E, grade 0-5: 4 (Herbicidal ratio of 70% or higher and lower than 90%)
[6]
  Herbicidal effect grade, H: Echinochloa crus-galli var. crus-galli: 5 (Herbicidal ratio of 90% or more (almost completely withered))
[7]
  Herbicidal effect grade, M: Abutilon theophrasti: 0 (Herbicidal ratio of 5% or lower (almost no effect))
[8]
  Herbicidal effect grade, O: Chenopodium album: 0 (Herbicidal ratio of 5% or lower (almost no effect))
[9]
  Herbicidal effect grade, R: Veronica persica: 0 (Herbicidal ratio of 5% or lower (almost no effect))
[10]
  G: Setaria viridis, herbicidal effect (criteria of Test Example 1): 5 (Herbicidal ratio of 90% or more (almost completely withered))
[11]
  N: Amaranthus retroflexus, herbicidal effect (criteria of Test Example 1): 0 (Herbicidal ratio of 5% or lower (almost no effect))
[12]
  c: corn, effect on crop (criteria of Test Example 1): 3 (Herbicidal ratio of 40% or higher and lower than 70%)
[13]
  d: soybean, effect on crop (criteria of Test Example 1): 2 (Herbicidal ratio of 20% or higher and lower than 40%)

## CON=C(C)CC1CC(OC(=O)N2CCOCC2)=C(c2c(C)cc(-c3ccc(Cl)cc3)cc2OC)C1=O (stereo not drawn) [6-078, 2-(4′-chloro-3-methoxy-5-methyl-[1,1′-biphenyl]-4-yl)-4-{2-(methoxyimino)propyl}-3-oxocyclopent-1-ene-1-yl morpholine-4-carboxylate]
[1]
  Herbicidal effect grade, A: Echinochloa oryzacola Vasing.: 5 (Herbicidal ratio of 90% or more (almost completely withered))
[2]
  Effect grade on crop, a: transplanted rice plant: 5 (Herbicidal ratio of 90% or more (almost completely withered))
[3]
  Herbicidal effect grade, B: Scirpus juncoides: 2 (Herbicidal ratio of 20% or higher and lower than 40%)
[4]
  Herbicidal effect grade, C: Monochoria vaginalis: 3 (Herbicidal ratio of 40% or higher and lower than 70%)
[5]
  herbicidal effect on E, grade 0-5: 0 (Herbicidal ratio of 5% or lower (almost no effect))
[6]
  H: Echinochloa crus-galli var. crus-galli, herbicidal effect grade: 0 (Herbicidal ratio of 5% or lower (almost no effect))
[7]
  M: Abutilon theophrasti, herbicidal effect grade: 1 (Herbicidal ratio of 5% or higher and lower than 20%)
[8]
  O: Chenopodium album, herbicidal effect grade: 0 (Herbicidal ratio of 5% or lower (almost no effect))
[9]
  R: Veronica persica, herbicidal effect grade: 0 (Herbicidal ratio of 5% or lower (almost no effect))
[10]
  G: Setaria viridis, herbicidal effect (criteria of Test Example 1): 5 (Herbicidal ratio of 90% or more (almost completely withered))
[11]
  N: Amaranthus retroflexus, herbicidal effect (criteria of Test Example 1): 0 (Herbicidal ratio of 5% or lower (almost no effect))
[12]
  c: corn, effect on crop (criteria of Test Example 1): 5 (Herbicidal ratio of 90% or more (almost completely withered))
[13]
  d: soybean, effect on crop (criteria of Test Example 1): 0 (Herbicidal ratio of 5% or lower (almost no effect))

## CON=C(C)CC1CC(O)=C(c2c(C)cc(-c3ncccn3)cc2C)C1=O (mixture of isomers) [6-057]
[1]
  Herbicidal effect grade, A: Echinochloa oryzacola Vasing.: 3 (Herbicidal ratio of 40% or higher and lower than 70%)
[2]
  Effect grade on crop, a: transplanted rice plant: 5 (Herbicidal ratio of 90% or more (almost completely withered))
[3]
  Herbicidal effect grade, B: Scirpus juncoides: 2 (Herbicidal ratio of 20% or higher and lower than 40%)
[4]
  Herbicidal effect grade, C: Monochoria vaginalis: 0 (Herbicidal ratio of 5% or lower (almost no effect))
[5]
  herbicidal effect on E, grade 0-5: 5 (Herbicidal ratio of 90% or more (almost completely withered))
[6]
  H: Echinochloa crus-galli var. crus-galli, herbicidal effect grade: 5 (Herbicidal ratio of 90% or more (almost completely withered))
[7]
  M: Abutilon theophrasti, herbicidal effect grade: 0 (Herbicidal ratio of 5% or lower (almost no effect))
[8]
  O: Chenopodium album, herbicidal effect grade: 0 (Herbicidal ratio of 5% or lower (almost no effect))
[9]
  R: Veronica persica, herbicidal effect grade: 0 (Herbicidal ratio of 5% or lower (almost no effect))
[10]
  G: Setaria viridis, herbicidal effect (criteria of Test Example 1): 5 (Herbicidal ratio of 90% or more (almost completely withered))
[11]
  N: Amaranthus retroflexus, herbicidal effect (criteria of Test Example 1): 1 (Herbicidal ratio of 5% or higher and lower than 20%)
[12]
  c: corn, effect on crop (criteria of Test Example 1): 5 (Herbicidal ratio of 90% or more (almost completely withered))
[13]
  d: soybean, effect on crop (criteria of Test Example 1): 3 (Herbicidal ratio of 40% or higher and lower than 70%)

## CON=C(C)CC1CC(O)=C(c2c(C)cc(-c3ccc(Cl)cc3F)cc2C)C1=O (stereo not drawn) [6-084]
[1]
  Herbicidal effect grade, A: Echinochloa oryzacola Vasing.: 5 (Herbicidal ratio of 90% or more (almost completely withered))
[2]
  Effect grade on crop, a: transplanted rice plant: 5 (Herbicidal ratio of 90% or more (almost completely withered))
[3]
  Herbicidal effect grade, B: Scirpus juncoides: 3 (Herbicidal ratio of 40% or higher and lower than 70%)
[4]
  Herbicidal effect grade, C: Monochoria vaginalis: 0 (Herbicidal ratio of 5% or lower (almost no effect))
[5]
  herbicidal effect on E, grade 0-5: 5 (Herbicidal ratio of 90% or more (almost completely withered))
[6]
  H: Echinochloa crus-galli var. crus-galli, herbicidal effect grade: 5 (Herbicidal ratio of 90% or more (almost completely withered))
[7]
  M: Abutilon theophrasti, herbicidal effect grade: 0 (Herbicidal ratio of 5% or lower (almost no effect))
[8]
  O: Chenopodium album, herbicidal effect grade: 3 (Herbicidal ratio of 40% or higher and lower than 70%)
[9]
  R: Veronica persica, herbicidal effect grade: 4 (Herbicidal ratio of 70% or higher and lower than 90%)
[10]
  G: Setaria viridis, herbicidal effect (criteria of Test Example 1): 5 (Herbicidal ratio of 90% or more (almost completely withered))
[11]
  N: Amaranthus retroflexus, herbicidal effect (criteria of Test Example 1): 3 (Herbicidal ratio of 40% or higher and lower than 70%)
[12]
  c: corn, effect on crop (criteria of Test Example 1): 0 (Herbicidal ratio of 5% or lower (almost no effect))
[13]
  d: soybean, effect on crop (criteria of Test Example 1): 5 (Herbicidal ratio of 90% or more (almost completely withered))

Source: patent publication US11000033B2, “Ketone or oxime compound, and herbicide” (NISSAN CHEMICAL CORPORATION, priority 2014, dated 2021)
